Reference: patent US20260297031A1, “HYDROXYLAMINE-BASED BCR-ABL1 INHIBITORS FOR TREATMENT OF CANCER” (University of Georgia Research Foundation, Inc., priority 2023, published 2026)
Where two headings read alike, the source gives them in different places.

Key:
[1] = Metabolic stability in human liver microsomes; format: in vitro ADME; conditions: human liver microsomes
Description: Metabolic Stability in Liver Microsomes (Independently Performed by Pharmaron Inc., Ninqbo, CN)
This experiment was carried out under two separate set of conditions: i) with Cofactors (NADPH), which consisted of adding 25 μL of 10 mM NADPH to the incubations, giving a final NADPH concentration of 1 mM, and ii) without Cofactors (NADPH), which consisted of adding 25 μL of 100 mM phosphate buffer to the incubations. Under both sets of conditions, the final concentration of microsomes were 0.5 mg/mL. […] Samples were then centrifuged at 3,220 g for 40 min and aliquots of 100 μL of the supernatant were mixed with 100 μL of ultra-pure H2O and analyzed by LC-MS/MS.
Peak areas were determined from extracted ion chromatograms. The slope value, k, was determined by linear regression of the natural logarithm of the remaining percentage of the parent drug vs incubation time curve.

Caco-2 permeability = conditions: human
Description: Caco-2 Permeability (Independently Performed by Pharmaron Inc., Ningbo, CN)
To each well of the Transwell insert and reservoir were added 50 μL and 25 mL of cell culture medium, respectively. […] Following this, the Caco-2 plate was removed from the incubator and the monolayer washed twice with pre-warmed HBSS (10 mM HEPES, pH 7.4).
To determine the rate of drug transport in the apical to basolateral direction, 125 μL of the working solution of either test compounds or control compounds was added to the Transwell insert (apical compartment) and a 50 μL sample was immediately transported from the apical compartment to 200 μL of acetonitrile containing internal standard (100 nM alprazolam, 200 nM Caffeine and 100 nM tolbutamide) in a new 96-well plate as the initial donor sample (A-B). The sample was then vortexed at 1,000 rpm for 10 min. The receiver plate (basolateral compartment) wells were then filled with 235 μL of transport buffer. To determine the rate of drug transport in the basolateral to apical direction, 285 μL of the working solution of either test compounds or control compounds was added to the receiver plate wells (basolateral compartment) and a 50 μL sample was immediately transferred from the basolateral compartment to 200 μL of acetonitrile containing internal standard in a new 96-well plate as the initial donor sample (B-A). The sample was vortexed at 1,000 rpm for 10 min. The Transwell insert (apical compartment) was then filled with 75 μL of transport buffer and the apical to basolateral direction and the basolateral to apical direction were done at the same time. […] After incubation, 50 μL samples from donor sides (apical compartment for Ap→BI flux, and basolateral compartment for BI→Ap) and receiver sides (basolateral compartment for Ap→BI flux, and apical compartment for BI→Ap) were transferred to wells of a new 96-well plate, followed by the addition of 200 μL acetonitrile containing internal standard. All samples were vortexed for 10 min and then centrifuged at 3,220 g for 40 min. A 150 μL aliquot of the supernatant was then mixed with an appropriate volume of ultra-pure water prior to LC-MS/MS analysis.
To monitor for monolayer integrity, Lucifer yellow leakage was determined after the 2 h transport period. This began by preparing a stock solution of Lucifer yellow in DMSO which was diluted with HBSS (10 mM HEPES, pH 7.4.) to reach a final concentration of 100 μM. To each Transwell insert (apical compartment) was then added 100 μL of the Lucifer yellow solution, followed by filling the wells in the receiver plate (basolateral compartment) with 300 μL of HBSS (10 mM HEPES, pH 7.4).
The efflux ratio was determined using the following equation: […]

[2] = Metabolic stability in mouse hepatocytes; format: in vitro ADME; conditions: read-out: Remaining Percentages
Description: All calculations were carried out using Microsoft Excel. Peak areas were determined from extracted ion chromatograms.

| SMILES | half-life at 1 µM [1] [min] | microsomal CLint at 1 µM ([1]; read-out: LMCIint (rate of metabolism)) [µL/min/mg] | Papp A→B at 2 h, 5 µM (Caco-2 permeability) [×10⁻⁶ cm/s] | remaining at 0.5 min ([2]; 0.5 min) [%] | remaining at […] ([2]; 15 min) [%] | remaining at 0.5 h ([2]; 30 min) [%] | remaining at 1 h ([2]; 60 min) [%] | remaining at […] ([2]; 90 min, BLOD = below level of detection) [%] | remaining at 2 h ([2]; 120 min, BLOD = below level of detection) [%] |
| --- | --- | --- | --- | --- | --- | --- | --- | --- | --- |
| COc1cc(Nc2c(C#N)cnc3cc(OCCON4CCN(C)CC4)c(OC)cc23)c(F)cc1Cl [Compound 15, 4-((4-chloro-2-fluoro-5-methoxyphenyl)amino)-6-methoxy-7-(2-((4-methylpiperazin-1-yl)oxy)ethoxy)quinoline-3-carbonitrile] | 4.3 | 321 | 1.9 |  |  |  |  |  |  |
| COc1cc(Cl)ccc1Nc1c(C#N)cnc2cc(OCCON3CCN(C)CC3)c(OC)cc12 [Compound 20, 4-((4-Chloro-2-methoxyphenyl)amino)-6-methoxy-7-(2-((4-methylpiperazin-1-yl)oxy)ethoxy)quinoline-3-carbonitrile] |  |  |  | 100 | 55.5 | 28.6 | 13.3 | 6.75 | 2.89 |
